How the values were obtained:
CDC2 = molecular target: T1, CDC2 (Homo sapiens, UniProt P06493); assay: p34cdc2 (CDC2) kinase inhibition assay, histone H1 substrate; assay type: biochemical; settings: Table 5, CDC2 activity in cell free system
T1 construct: made in house; host or cells: Sf9 insect cells, baculovirus co-infection

KG1 cells = assay: apoptosis and cell cycle in KG1 cells (fluorescence microscopy, TUNEL); assay type: cell-based, human; settings: for speed of apoptosis induction (microscopic examination): KG1, 6-72 hours of exposure, FIG. 4; for apoptotic cells in G0-G1 phase versus control cells: KG1, TUNEL with EB, FIG. 6
Experimental: Nuclear morphology of the cells was analysed with the fluorochromes Hoechst 33342 (λEx max 346 nm; λEm max 460 nm) (Sigma) prepared in phosphate-buffered saline (PBS at 0.1 mg/ml, added to the culture medium at a final concentration of 2 μg/ml and ethidium bromide (EB) (λEx max 540 nm; λEm max 625 nm) (Sigma) prepared in PBS at 100 μg/ml and added to the culture medium at a final concentration of 2 μg/ml (Lizard, 1995). Hundred cells were counted for each sample and percentage of apoptosis was determined.
Control and novel compound-treated cell cultures were washed with PBS and fixed in […] (pH 7.4) for 15 minutes on ice. After washing in PBS, cells were permeabilized in 70% cold (−20° C.) ethanol and transferred to 4° C. for at least 1 hour. After rehydratation in PBS, cells were labeled with 50 μl/well TUNEL reaction mixture (Boehringer Mannheim). Cells were incubated in this solution at 37° C. for 40 minutes, washed in PBS and resuspended in 500 μl PBS containing 5 μg/ml EB and 0.1% RNAse. After 30 minutes of incubation at 4° C., green (FITC-dUTP) and red (EB-DNA) fluorescence of individual cells was measured on a FACscan flow cytometer (Gorczyca, 1993). Negative control (fixed and permeabilized cells incubated with 50 μl label solution per well without terminal transferase, instead of TUNEL reaction mixture) and positive control (fixed and permeabilized cells incubated with DNase I (100 μg/ml) that induces DNA strand breaks) were included in each experimental set-up.
Flow cytometric detection of apoptosis combined with DNA staining can identify apoptotic cells and simultaneously evaluate their position in the cell cycle. This technique was used to provide infomation about the possible cell cycle specific initiation of apoptosis by the tested compounds. If more than 2% of apoptotic cells were detected by the TUNEL method and the absolute number of acquired apoptotic events exceeded 2000, DNA content was simultaneously measured. Within the apoptotic population, analysis and calculation of the different cell cycle phases was carried out by an iterative curve fitting procedure (ModFit LT cell cycle analysis sofware from Verity software house, INC).
Viable, apoptotic, necrotic (=primary necrosis, not following apoptosis) and secondarily necrotic cells (=late apoptotis, evolving to necrosis) were scored differentially after 6, 12, 24, 48 and 72 hours of exposure to novel compounds. For the three products a different apoptosis-inducing pattern could be observed. Apoptosis induction occurs fast after incubation with P23 and P28 but slower after incubation with P27.
Flow cytometric detection of apoptosis and cell cycle analysis: The induction of apoptotic death of KG1 cells by the novel compounds was confirmed using the TUNEL reaction technique (FIG. 5). […] Incubation of KG1 cell line with P27 results in detectable apoptosis after 24 hours. Percentage of apoptotic cells in G0-G1 increases with time, while the number of apoptotic cells in S+G2/M phases decreases. […] After 6 and 12 hours of incubation the apoptotic population seems mainly to evolve from S phase.

[1] = tested on: PHA-stimulated lymphocytes (PBMC); assay: cell number of PHA-stimulated lymphocytes (PBMC), flow cytometry; assay type: cell-based, human; settings: 96 hours, in the presence of IL-2
β-adrenergic receptors = assay: isoproterenol-induced intracellular cAMP synthesis in rat C6 glioma; assay type: cell-based; settings: cAMP induced by 5 μM (−) isoproterenol
Experimental: Rat C6 glioma (ATCC N° CCL107) was cultivated in monolayer in serum-free chemically defined medium containing Ham's F10/minimal essential medium (1:1 vol/vol), 2 mM L-glutamine, 1% (vol/vol) minimal essential medium vitamins (100×), 1% (vol/vol) minimal essential medium nonessential amino acids (100×), 100 U/ml penicillin, 100 μg/ml streptomycin and 30 nM sodium selenite. Incubation was at 37° C. in a humidified atmosphere. Assays were performed in the logaritmic growth phase at a density of 2.5×10^5 cells/cm^2. Intracellular cAMP synthesis was induced by addition of 5 μM (−) isoproterenol. After 30 min incubation at 37° C. the medium was removed and the cellular amount of cAMP determined using the cAMP-enzyme immunoassay kit of Amersham. The IC50 is determined from a dose-response curve in duplicate. The effect of seven purine-analogs was measured after simultaneous addition with isoproterenol.
As P2Y1-like and A2 purinergic receptors, negatively and positively coupled to adenylate cyclase respectively, are present on rat C6 glioma the modulation of the synthesis of cAMP may be due to inhibition of the activation of β-adrenergic receptors by isoproterenol or to activation of purinergic receptors.

[2] = tested on: T-lymphocyte leukemia Molt3 cell line; assay: cell growth of Molt3 cell line, flow cytometric cell count; assay type: cell-based, human; settings: 96 hours of culture

T1 sequence (P06493 whole entry, species assumed): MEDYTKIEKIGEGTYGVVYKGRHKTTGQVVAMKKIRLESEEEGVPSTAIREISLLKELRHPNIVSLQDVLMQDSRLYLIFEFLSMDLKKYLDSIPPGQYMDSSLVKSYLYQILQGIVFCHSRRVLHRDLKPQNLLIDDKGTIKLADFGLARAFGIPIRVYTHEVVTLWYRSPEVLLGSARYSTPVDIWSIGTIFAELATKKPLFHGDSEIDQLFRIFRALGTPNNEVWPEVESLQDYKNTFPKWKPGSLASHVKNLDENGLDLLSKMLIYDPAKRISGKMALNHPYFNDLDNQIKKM
T1 sequence (P14635 whole entry partner, species assumed): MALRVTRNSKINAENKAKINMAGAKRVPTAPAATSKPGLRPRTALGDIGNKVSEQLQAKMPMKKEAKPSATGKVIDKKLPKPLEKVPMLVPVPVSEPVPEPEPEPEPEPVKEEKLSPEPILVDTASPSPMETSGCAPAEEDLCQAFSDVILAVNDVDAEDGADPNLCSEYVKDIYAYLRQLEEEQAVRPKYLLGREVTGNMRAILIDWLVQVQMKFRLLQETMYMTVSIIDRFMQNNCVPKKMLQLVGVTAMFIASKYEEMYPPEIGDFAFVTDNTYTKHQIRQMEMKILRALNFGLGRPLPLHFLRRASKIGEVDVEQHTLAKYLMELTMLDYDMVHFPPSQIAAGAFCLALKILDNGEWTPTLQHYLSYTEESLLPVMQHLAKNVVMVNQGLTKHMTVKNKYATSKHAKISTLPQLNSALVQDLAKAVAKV

IC50 (CDC2) | Effect: fold activation (β-adrenergic receptors; 50 μM) | IC50 [2] | Effect (β-adrenergic receptors; 30 min, rat C6 glioma) | IC50 (β-adrenergic receptors; 30 min, read-out: I50) | IC50 ([2]; Homo sapiens, MOLT-3) | Molecule | time of incubation after which apoptosis was detected (TUNEL) (KG1 cells; KG1) | speed of apoptosis induction (microscopic examination) (KG1 cells) | apoptotic cells in G0-G1 phase versus control cells (KG1 cells) | IC50 [1] | CC50 ([1]; Homo sapiens, Lymphocyte, read-out: Lymphocytes IC50)
1.5 µM | 1.3-fold activation | 14 ± 1.8 µM |  |  |  | 2-(3-aminoethylamino)-6-(3,3-dihydroxybenzyl)amino-9-isopropylpurine [P28] | 6 h | fast | increase with time after 24 hours | 9 ± 2.2 µM | 
60 µM |  |  | inhibition | 15 ± 2 µM | 16 ± 0.8 µM | CCCCCCNc1nc(NC(CO)c2ccccc2)c2ncn(C(C)C)c2n1 (centres unmarked) [P23, 2-(hexylamino)-6-(1-phenyl-2-hydroxyethylamino)-9-isopropylpurine] |  | fast | no significant differences were detected |  | 15 ± 2 µM
